Source: US9770026B2, “Substituted pyrimidine compound and uses thereof” (Shenyang Sinochem Agrochemicals R&D Co., Ltd., priority 2012, dated 2017)

Legend:
corn rust = experiment: protectant activity in vivo against corn rust; settings: Zea mays, 168 h
[1] = concentration of 400 and 100 ppm; cited from earlier work
[2] = concentration of 50 ppm; cited from earlier work
wheat powdery mildew = experiment: protectant activity in vivo against wheat powdery mildew; settings: Triticum aestivum, 168 h
rice blast = experiment: microbe, parasite or virus in culture; format: cell-based; settings: Pyricularia oryzae
armyworm = experiment: bioactivity test against armyworm, airbrush spray; format: in vivo; settings: 72 h, read-out: Insecticidal activity against armyworm (%)
[3] = system: Green peach aphids (Myzus Persicae Sulzer); experiment: bioactivity test against green peach aphid, airbrush foliar spray; format: in vivo; settings: Myzus persicae, foliar, 48 h, contrastive test, read-out: Insecticidal activity against peach aphid (%)
Outline: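 Aphids (15-30 per cabbage leaf disc) on moist filter paper were airbrush-sprayed at 10 psi, 0.5 mL, with compound from acetone:methanol (1:1) diluted in water with 0.1% tween 80. Held at 25±1 C, 60±5% RH; survivors counted after 48 hrs to give death rates.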

cucumber gray mold = experiment: fungicidal activity in vitro (inhibition rate) against cucumber gray mold; format: cell-based; settings: 25 ppm, in vitro; read-out: inhibition rate against cucumber gray mold
cucumber downy mildew = experiment: protectant activity in vivo against cucumber downy mildew; settings: Cucumis sativus, 168 h

Question: With FC(F)(F)c1ccc(Oc2ccc(CCNc3ncnc4ccccc34)cn2)cc1 [CK19, reference compound] as the compound, how does the pest or weed control at 100 µg/mL (corn rust; read-out: control effect against corn rust (%), 100 mg/L, protectant activity) read?
Answer: 0%

Question: What about the pest or weed control at 400 µg/mL (corn rust; read-out: control effect against corn rust (%), 400 mg/L, protectant activity) of the same compound?
Answer: 70%

Question: And the fungicidal activity [1]?
Answer: good fungicidal activity

Question: And the insectcidal activity [2]?
Answer: good insectcidal activity

Question: What about the pest or weed control at 100 µg/mL (wheat powdery mildew; read-out: control effect against wheat powdery mildew (%), 100 mg/L, protectant activity) of the same compound?
Answer: 0%

Question: What about the pest or weed control at 400 µg/mL (wheat powdery mildew; read-out: control effect against wheat powdery mildew (%), 400 mg/L, protectant activity) of the same compound?
Answer: 50%

Question: What about the inhibition at 8.3 ppm (rice blast; read-out: inhibition rate against rice blast, 8.3 ppm, in vitro) of the same compound?
Answer: 0%

Question: And the pest or weed control at 10 µg/mL (armyworm; 10 mg/L)?
Answer: 7%

Question: What about the pest or weed control at 100 µg/mL (armyworm; 100 mg/L) of the same compound?
Answer: 25%

Question: What about the pest or weed control at 600 µg/mL (armyworm; 600 mg/L) of the same compound?
Answer: 86%

Question: What about the pest or weed control at 10 µg/mL ([3]; 10 mg/L) of the same compound?
Answer: 33%

Question: And the pest or weed control at 100 µg/mL ([3]; 100 mg/L)?
Answer: 86%

Question: And the pest or weed control at 600 µg/mL ([3]; 600 mg/L)?
Answer: 100%

Question: With COc1cc(OC)nc(Oc2ccc(CCNc3ncnc(C)c3Cl)cc2)n1 [Compound I-4757] as the compound, how does the melting point read?
Answer: 119 to 120 °C

Question: What about the pest or weed control at 25 ppm (corn rust; read-out: protectant activity against corn rust in vivo, 25 ppm) of the same compound?
Answer: 80 to 99%

Question: And the pest or weed control at 100 ppm (corn rust; read-out: protectant activity against corn rust in vivo, 100 ppm)?
Answer: 100%

Question: And the pest or weed control at 400 ppm (corn rust; read-out: protectant activity against corn rust in vivo, 400 ppm)?
Answer: 100%

Question: And the inhibition at 25 ppm (cucumber gray mold)?
Answer: 100%

Question: And the pest or weed control at 100 ppm (cucumber downy mildew; read-out: protectant activity against cucumber downy mildew in vivo, 100 ppm)?
Answer: 100%

Question: What about the pest or weed control at 400 ppm (cucumber downy mildew; read-out: protectant activity against cucumber downy mildew in vivo, 400 ppm) of the same compound?
Answer: 100%

Question: And the pest or weed control at 400 ppm (wheat powdery mildew; read-out: protectant activity against wheat powdery mildew in vivo, 400 ppm)?
Answer: 100%

Question: And the inhibition at 25 ppm (rice blast; read-out: inhibition rate against rice blast, 25 ppm, in vitro)?
Answer: 80 to 99%
